Experimental data reported in article PMC6522510 (Nature Communications, 2019).
Counter-ions that a name gives are not always drawn. Like-named read-outs stand apart in the source and are kept apart here.

Legend:
Design in all cases: species or system AML cell lines (8); Primary HTS, single concentration about 10 uM, Cell Titer Glo viability; log10 luminescence, per cent inhibition relative to cycloheximide control
Settings in all cases: 72 h, relative to cycloheximide control, log10 luminescence, inhibitor
MOLM-13 = tested on: MOLM-13
CMS = tested on: CMS
ML-2 = tested on: ML-2
M07e = tested on: M07e
MV4-11 = tested on: MV4-11
CHRF288-11 = tested on: CHRF288-11
CMK = tested on: CMK
U937 = tested on: U937

Structure (SMILES)	MOLM-13 %inh (MOLM-13) [%]	CMS %inh (CMS) [%]	ML-2 %inh (ML-2) [%]	M07e %inh (M07e) [%]	MV4-11 %inh (MV4-11) [%]	CHRF288-11 %inh (CHRF288-11) [%]	CMK %inh (CMK) [%]	U937 %inh (U937) [%]	MOLM-13 %inh (MOLM-13; MOLM-13 %inh, 10 µM) [%]	ML-2 %inh (ML-2; ML-2 %inh, 10 µM) [%]	M07e %inh (M07e; M07e %inh, 10 µM) [%]	MV4-11 %inh (MV4-11; MV4-11 %inh, 10 µM) [%]	CHRF288-11 %inh (CHRF288-11; CHRF288-11 %inh, 10 µM) [%]	CMK %inh (CMK; CMK %inh, 10 µM) [%]	CMS %inh (CMS; CMS %inh, 10 µM) [%]	U937 %inh (U937; U937 %inh, 10 µM) [%]
CCCCC[C@H](CC(=O)NO)C(=O)N[C@H](C(=O)N1CCC[C@H]1CO)C(C)C [SJ000285589-6, ACTINONIN]	22.93	4.96	7.53	6.094	13.23	7.871	2.47	11.94								
CCCCC1C(=O)N(c2ccccc2)N(c2ccc(O)cc2)C1=O (stereo not shown) [SJ000285591-4, OXYPHENBUTAZONE]	-3.833	98.27	63.81	119.6	79.54	-1.743	-9.457	81.76								
CO[C@@]1(NC(=O)Cc2cccs2)C(=O)N2C(C(=O)O)=C(COC(N)=O)CS[C@@H]21 [SJ000285599-4, CEFOXITIN SODIUM]	3.83	-1.051	-2.877	-3.67	-5.193	-4.487	1.325	-1.811								
CCCCNC(=O)NS(=O)(=O)c1ccc(C)cc1 [SJ000285613-7, TOLBUTAMIDE]	-1.699	0.8795	1.608	-0.3777	0.676	-1.378	-3.705	-1.884								
CC(C)[N+](C)(CCC(C(N)=O)(c1ccccc1)c1ccccc1)C(C)C [SJ000285636-4, ISOPROPAMIDE IODIDE]	19.61	-2.262	-0.5962	2.458	-0.6779	8.188	-6.961	-1.123								
COc1cccc(OC)c1C(=O)N[C@@H]1C(=O)N2[C@@H]1SC(C)(C)[C@@H]2C(=O)O [SJ000285650-3, METHICILLIN SODIUM]	-0.5712	-3.883	-0.07595	-0.3426	-1.181	120.3	-1.148	1.642								
CN(C)[C@@H]1C(=O)C(C(N)=O)=C(O)[C@@]2(O)C(=O)C3=C(O)c4c(O)cccc4[C@@](C)(O)[C@H]3[C@H](O)[C@@H]12 [SJ000285682-4, OXYTETRACYCLINE | OXYTETRACYCLINE DIHYDRATE | OXYTETRACYCLINE HYDROCHLORIDE | OXYTETRACYCLINE (TERRAMYCIN)]	3.957	0.1991	0.3169	-0.1554	-1.23	25.02	-2.364	0.3352								
Cn1c(=O)c2c(ncn2C)n(C)c1=O [SJ000285694-6, CAFFEINE]	-2.617	0.8967	0.4974	4.484	-1.738	-2.164	-3.637	-2.594								
CCn1nc(C(=O)O)c(=O)c2cc3c(cc21)OCO3 [SJ000285711-7, CINOXACIN]	1.821	0.852	-1.975	5.282	3.259	0.6656	0.4853	2.404								
CN(C)/N=N/c1[nH]cnc1C(N)=O [SJ000285718-4, DACARBAZINE]	31.43	-1.6	-0.5509	-1.918	4.433	9.396	31.68	1.118								
C#C[C@]1(O)CC[C@H]2[C@@H]3CCC4=Cc5oncc5C[C@]4(C)[C@H]3CC[C@@]21C [SJ000285723-7, DANAZOL]	13.86	-0.3914	0.4162	0.05908	3.859	3.76	-0.5732	4.655								
CC(=O)N(O)CCCCCNC(=O)CCC(=O)N(O)CCCCCNC(=O)CCC(=O)N(O)CCCCCN [SJ000285725-5, DEFEROXAMINE MESYLATE]		49.53						32.98	54.77	13.98	9.207	0.1216	11.75	30.74		
C/C=C(/C(=C/C)c1ccc(O)cc1)c1ccc(O)cc1 [SJ000285735-4, DIENESTROL]									3.801	0.7684	-0.9445	-1.794	-2.974	4.084	-3.971	2.437
C/C=C(/C(=C/C)c1ccc(O)cc1)c1ccc(O)cc1 [SJ000285735-5, DIENESTROL]									17.84	1.532	2.558	1.913	-2.147	33.82	-2.72	2.402
CCN(CC)C(=O)N1CCN(C)CC1 [SJ000285736-4, DIETHYLCARBAMAZINE CITRATE]	1.95	-4.008	-1.11	-3.005	2.119	-2.146	2.446	2.79								
O=C(O)c1cc(-c2ccc(F)cc2F)ccc1O [SJ000285738-4, DIFLUNISAL]	1.208	0.6702	-0.2454	2.006	3.937	-4.662	-0.9892	4.296								
C[C@H]1O[C@@H](O[C@H]2[C@@H](O)C[C@H](O[C@H]3[C@@H](O)C[C@H](O[C@H]4CC[C@@]5(C)[C@H](CC[C@@H]6[C@@H]5C[C@@H](O)[C@]5(C)[C@@H](C7=CC(=O)OC7)CC[C@]65O)C4)O[C@@H]3C)O[C@@H]2C)C[C@H](O)[C@@H]1O [SJ000285739-5, DIGOXIN]									106.4	70.4	115.6	85.53	126.2	94.03	110.4	89.45
C[C@H]1O[C@@H](O[C@H]2[C@@H](O)C[C@H](O[C@H]3[C@@H](O)C[C@H](O[C@H]4CC[C@@]5(C)[C@H](CC[C@@H]6[C@@H]5C[C@@H](O)[C@]5(C)[C@@H](C7=CC(=O)OC7)CC[C@]65O)C4)O[C@@H]3C)O[C@@H]2C)C[C@H](O)[C@@H]1O [SJ000285739-6, DIGOXIN]									91.77	63.97	102.6	80.5	118.6	86.52	96.75	81.18
CN(C)CCOC(C)(c1ccccc1)c1ccccn1 (stereo not shown) [SJ000285751-7, DOXYLAMINE SUCCINATE]	4.161	-0.1312	-0.5397	1.23	-5.123	11.69	-1.167	-1.083								
C[C@]12CC[C@@H]3c4ccc(O)cc4CC[C@H]3[C@@H]1CCC2=O [SJ000285760-7, ESTRONE]									-0.4054	0.07519	1.639	2.184	-1.204	0.6093	0.8051	0.9734
